The values below are quoted from earlier work in patent US5730986A (priority 1995, dated 1998).

For data set [1] the following is noted: in vivo.
In the next data set the test system is pepsinogen. The note with it: rat stomach.

With `[Mg+2].[OH-].[OH-]` [Mg(OH)2], the adverse reactions result in data set [1] is “loose stools or diarrhea”. As for `CN/C(=N/CCSCc1nc[nH]c1C)NC#N` [cimetidine], in the data set on cytochrome P450, the “inhibition of cytochrome P450-catalyzed drug oxidation and hydroxylation of estradiol” value was “inhibits cytochrome P450 -catalyzed drug oxidation and hydroxylation of estradiol”. As to `COc1ccc2[nH]c([S+]([O-])Cc3ncc(C)c(OC)c3C)nc2c1` (stereo not drawn) [omeprazole], the “secretion, synthesis and gene expression of pepsinogen” value in the data set with pepsinogen is “reduces the secretion, synthesis and gene expression of pepsinogen”.

Consider `C/C=C(\C)C(=O)O[C@H]1C[C@@H](OC(C)=O)[C@@]2(C(=O)OC)CO[C@H]3[C@@H](O)[C@@](C)([C@]45O[C@@]4(C)[C@H]4C[C@@H]5O[C@@H]5OC=C[C@@]54O)[C@H]4[C@]1(CO[C@]4(O)C(=O)OC)[C@@H]32` [Azadirachtin], for which, in the data set with insects, the pesticide properties result was “phagorepellent, antifeadent and systemic growth disruptor properties in insects”. Also, the “inhibition of the development of malarial parasites” value in the data set with malarial parasites was “inhibitory to the development of malarial parasites”. Also, in the data set on larva of P. xylostella L, the activity against larva result was “active against larva of P. xylostella L”.
